These results are taken from patent US10624895B2, “Methods of sensitizing a patient with glioma to a therapeutic agent by administering small hairpin RNA targeting PDZ-RHOGEF” (THE TRANSLATIONAL GENOMICS RESEARCH INSTITUTE, priority 2016, dated 2020).

The subject of data set [1] is T98G, GBM10, and GBM43 cells. The experiment in a line: CellTiterGlo cytotoxicity assay. Type of data set: cell-based, human. The settings on record: 0.5 to 20 μM PPF, 72 hours. On the procedure:
FIG. 25A—T98G, GBM43, and GBM10 cells were incubated with increasing concentrations of PPF (0, 5, 50, and 500 After 0, 48, 96 and 144 hours of treatment, cell were trypsinized and counted using an automated cell counter. FIG. 25B—GBM43, GBM10, and T98G glioma cells were treated with increasing doses of PPF (0.5, 1, 5, 10, and 20 μM) in triplicate. The CellTiterGlo® (Promega) reagent was used to measure survival. Raw values were normalized on a plate-by-plate basis such that 100% cell viability was equivalent to the mean of vehicle wells and 0% cell viability was equivalent to the mean of the MG132 positive control. The normalized data was used to assess viability of glioma cells after PPF treatment.
Referring now to FIGS. 25A and 25B: To determine if PPF influences glioma cell proliferation, the inventors treated T98G, GBM10, and GBM43 cells with increasing concentrations of PPF and evaluated cell proliferation over the course of 144 hours. Briefly, 1.25×10^5 cells were seeded (n=3) in 12-well plates in 1 mL of DMEM supplemented with 10% FBS and allowed to attach at 37° C. for 16 hrs. […] After 0, 48, 96 and 144 hours of treatment, the cells were trypsinized and counted using the automated cell counter. […] Subsequently, 100 μL of CellTiterGlo® reagent was added to each well and luminescence was measured using Envision Reader. […]
(In general: Cellular ATP, detected with luciferase, serves as a proxy for viable cell number.)

Data set [2] concerns T98G cells. The experiment in a line: EGF-stimulated transwell migration assay. Type of data set: cell-based, human. The settings on record: serum starved T98G, PPF one hour prior to EGF (10 ng/mL), 24 hours. On the procedure: FIG. 33 depicts the impact of PPF treatment on EGF-stimulated glioma cell migration. Serum starved T98G cells were treated with PPF at various concentrations one hour prior to EGF addition (10 ng/mL). Cell migration was assessed using the transwell migration assay after 24 hours. *p<0.001; **p<0.01.
Thus, the capacity of TROY to stimulate glioma cell invasion and increase TMZ and IR resistance could rely on the formation of a TROY-EGFR signaling complex. This association could activate, or potentiate, shared signaling pathways survival pathways as well as activate distinct TROY signaling pathways that mediate TROY receptor specific functional activities. Therefore, therapeutic approaches targeting TROY and/or both receptors may yield increased therapeutic benefit.

Data set [3] relates to CNS-1 rat model. Particulars: systemic PPF treatment; cited from earlier work.
The test system of data set [4] is cleaved PARP. The experiment in a line: Immunoblot for cleaved PARP (TMZ-induced apoptosis). Type of data set: cell-based, human. The settings on record: T98G cells, PPF (5 μM) in combination with TMZ (250 μM), compared to TMZ alone. On the procedure:
FIGS. 26A, 26B, and 26C depict that PPF sensitizes GBM cells to TMZ and radiotherapy. FIG. 26A—A clonogenic assay was used to assess T98G and GBM43 cells survival after TMZ and radiation treatment. Cells were pre-treated with 5 μM PPF for 24 hours, and then either treated with 250 μM TMZ for 24 hours or exposed to 2 Gy radiation. Graph depicts the surviving fraction in the treated cells compared to vehicle (VC) treated or non-treated (NT) cells, **p<0.01. FIG. 26B—T98G glioma cells were treated with vehicle, PPF (5 μM) TMZ (250 μM) and PPF in combination with TMZ. TMZ-induced apoptosis was assayed by immunoblot analysis of cell lysates with an antibody to cleaved PARP. Immunoblotting for α-Tubulin was included as a loading control. FIG. 26C—T98G, GBM10, and GBM43 cells were treated with PPF ([…], and then immunoblotted to assess the activation of AKT and NF-κB. Immunoblotting for β-Actin is included as a loading control.
Referring now to FIGS. 26A, 26B, and 26C: Knockdown of TROY expression with shRNA decreases TMZ resistance in GBM cells in vitro (See Reference 42). […] Following combination therapy, cells were trypsinized, counted, and plated in a 6-well culture dish at densities of 100, 250, and 500 cells per well in triplicate. Cells were incubated for 12 days then fixed, stained with 0.5% crystal violet solution, and counted manually by blinded observers. […]
(In general: In western blotting, separated proteins are transferred to a membrane and probed.)

The conditions of data set [5]: clinical trials for Alzheimer's disease and vascular dementia; cited from earlier work.

For the compound `CCCn1cnc2c1c(=O)n(CCCCC(C)=O)c(=O)n2C` [PPF, 3-methyl-1-(5-oxohexyl)-7-propyl-3,7-dihydro-1H-purine-2,6-dione], in data set [1], the cell viability result is “negligible loss of cell viability”. Moreover, the “EGF-stimulated glioma cell migration” value in data set [2] is reported as “reduced EGF-stimulated glioma cell migration”. Also, the tumor growth result in data set [3] was “decreased tumor growth”. Further, the “cleaved PARP” value in data set [4] is reported as “increase in cleaved PARP”. In data set [5], the side effect profile entry is reported as “minimal side effect profile”.
